# Test results taken from patent US20230210999A1, “TARGETED PROTEASE DEGRADATION (TED) PLATFORM” (EUBULUS BIOTHERAPEUTICS INC., priority 2020, published 2023).
# Columns and labels:
# NCIH82 cells = assay: Cell proliferation experiment, NCI-H82; assay type: cell-based, human; conditions: Homo sapiens, NCI-H82, 72 h, NCIH82 cells, 72 h; read-out: Inhibitory activity IC50 of tested compounds on NCIH82 cells
# Summary of the method: (§1)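 Log-phase cells seeded, then exposed 72 h to test compound in a 5-fold dilution series, duplicate wells per concentration. Growth read by Alamar blue fluorescence; […].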
# MV4;11 cells = assay: Cell proliferation experiment (Alamar blue, 72 h), MV4;11; assay type: cell-based, human; conditions: Homo sapiens, MV4-11, 72 h, MV4;11 cells, 72 h; read-out: Inhibitory activity IC50 of tested compounds on MV4;11 cells
# Summary of the method: as §1
# U-87MG cells = assay: Cell proliferation experiment, U-87MG; assay type: cell-based; conditions: Homo sapiens; U-87MG cells, 72 h; read-out: Inhibitory activity IC50 of tested compounds on U-87MG cells
# Summary of the method: as §1
# HT-29 cells = assay: Cell proliferation experiment, HT-29; assay type: cell-based; conditions: Homo sapiens; HT-29 cells, 72 h; read-out: Inhibitory activity IC50 of tested compounds on HT-29 cells
# Summary of the method: as §1
# MDA-MB-231 cells = assay: Cell proliferation experiment, MDA-MB-231; assay type: cell-based, human; conditions: Homo sapiens, MDA-MB-231, 72 h, MDA-MB-231 cells, 72 h; read-out: Inhibitory activity IC50 of tested compounds on MDA-MB-231 cells
# Summary of the method: as §1
# Daudi cells = assay: Cell proliferation experiment, Daudi; assay type: cell-based, human; conditions: Homo sapiens, Daudi, 72 h, Daudi cells, 72 h; read-out: Inhibitory activity IC50 of tested compounds on Daudi cells
# Summary of the method: as §1
# HL-60 cells = assay: Cell proliferation experiment, HL-60; assay type: cell-based; conditions: Homo sapiens, 72 h, read-out: Inhibitory activity IC50 of tested compounds on HL-60 cells
# Description: (§2) Reagents: RPMI-1640 medium, McCoy's 5A medium, IMDM medium, MEM medium, L-15 medium, fetal bovine serum. Penicillin-Streptomycin double antibody, trypsin, etc., 2-mercaptoethanol, NEAA, pyruvate, etc.
# (§3) The cells were cultured in conventional ways, and the cells should be passed at least 2 generations before plating. Cells at the logarithmic growth phase were collected, prepared into single cell suspensions and counted. The concentration of cells was adjusted to the desired concentration, and cells were inoculated into a 96-well cell culture plate at 100 μl per well. 100 μL of complete medium of the test compound were added to each well, set up 2 duplicate wells for each concentration, and diluted with a 5-fold gradient, and continued to culture for 72 h. All cells were subjected to IC50 test for corresponding samples. The experimental results are shown in Test Example 4.
# (§4) The fluorescence intensity of each well was detected using the Alarm blue method, and IC50 was calculated.
# (§5) IC50 was calculated according to the following formula:
# (§6) Y=Max+(Min−Max)/[1+(X/IC50)×Slope]
# (§7) wherein Min, Max and Slope represent the minimum, maximum and slope respectively.
# HUVEC cells = assay: Cell proliferation experiment, HUVEC; assay type: cell-based; conditions: Homo sapiens, 72 h, read-out: Inhibitory activity IC50 of tested compounds on HUVEC cells
# Description: as §2, §3, §4, §5, §6, §7
# Hela cells = assay: Cell proliferation experiment, Hela; assay type: cell-based; conditions: Homo sapiens, 72 h, read-out: Inhibitory activity IC50 of tested compounds on Hela cells
# Description: as §2, §3, §4, §5, §6, §7
IC50 (NCIH82 cells),IC50 (MV4;11 cells),IC50 (U-87MG cells),IC50 (HT-29 cells),IC50 (MDA-MB-231 cells),IC50 (Daudi cells),IC50 (HL-60 cells),IC50 (Hela cells),Compound,IC50 (HUVEC cells)
≤ 1000 nM,≤ 100 nM,100 to 500 nM,≤ 300 nM,–,100 to 1000 nM,≤ 1000 nM,–,CC[C@@H]1C(=O)N(C)c2cnc(Nc3ccc(C(=O)NC4CCN(CCCOCCN(C)CCC#Cc5cccc6c5CN(C5CCC(=O)NC5=O)C6=O)CC4)cc3OC)nc2N1C1CCCC1 (stereo partly drawn) [Compound 897],–
≤ 1000 nM,≤ 100 nM,≤ 100 nM,≤ 300 nM,–,≤ 100 nM,≤ 1000 nM,–,CC[C@@H]1C(=O)N(C)c2cnc(Nc3ccc(C(=O)NC4CCN(CCNCCCOCCCC#Cc5cccc6c5CN(C5CCC(=O)NC5=O)C6=O)CC4)cc3OC)nc2N1C1CCCC1 (stereo partly drawn) [Compound 899],–
≤ 1000 nM,≤ 100 nM,≤ 100 nM,≤ 300 nM,–,≤ 100 nM,≤ 1000 nM,–,CC[C@@H]1C(=O)N(C)c2cnc(Nc3ccc(C(=O)NC4CCN(CCN(C)CCCOCCCC#Cc5cccc6c5CN(C5CCC(=O)NC5=O)C6=O)CC4)cc3OC)nc2N1C1CCCC1 (stereo partly drawn) [Compound 900],–
≤ 1000 nM,≤ 100 nM,100 to 500 nM,300 to 1000 nM,–,–,≤ 1000 nM,–,CC[C@@H]1C(=O)N(C)c2cnc(Nc3ccc(C(=O)NC4CCN(CCCNCCCOCCCC#Cc5cccc6c5CN(C5CCC(=O)NC5=O)C6=O)CC4)cc3OC)nc2N1C1CCCC1 (stereo partly drawn) [Compound 901],–
≤ 1000 nM,–,≤ 100 nM,≤ 300 nM,–,≤ 100 nM,≤ 1000 nM,–,CC[C@@H]1C(=O)N(C)c2cnc(Nc3ccc(C(=O)NC4CCN(CCOCCCC#Cc5cccc6c5CN(C5CCC(=O)NC5=O)C6=O)CC4)cc3OC)nc2N1C1CCCC1 (stereo partly drawn) [Compound 902],–
≤ 1000 nM,≤ 100 nM,100 to 500 nM,300 to 1000 nM,–,≤ 100 nM,–,–,CC[C@@H]1C(=O)N(C)c2cnc(Nc3ccc(C(=O)NC4CCN(CCCOCCCN(C)CCCC#Cc5cccc6c5CN(C5CCC(=O)NC5=O)C6=O)CC4)cc3OC)nc2N1C1CCCC1 (stereo partly drawn) [Compound 919],≤ 1000 nM
≤ 1000 nM,≤ 100 nM,100 to 500 nM,≤ 300 nM,–,≤ 100 nM,–,–,CC[C@@H]1C(=O)N(C)c2cnc(Nc3ccc(C(=O)NC4CCN(CCCCN(C)CCCC#Cc5cccc6c5CN(C5CCC(=O)NC5=O)C6=O)CC4)cc3OC)nc2N1C1CCCC1 (stereo partly drawn) [Compound 923],≤ 1000 nM
≤ 1000 nM,≤ 100 nM,100 to 500 nM,≤ 300 nM,–,≤ 100 nM,–,–,CC[C@@H]1C(=O)N(C)c2cnc(Nc3ccc(C(=O)NC4CCN(CCCOCCN(C)CCCC#Cc5cccc6c5CN(C5CCC(=O)NC5=O)C6=O)CC4)cc3OC)nc2N1C1CCCC1 (stereo partly drawn) [Compound 924],≤ 1000 nM
≤ 1000 nM,≤ 100 nM,≤ 100 nM,≤ 300 nM,–,≤ 100 nM,–,–,CC[C@@H]1C(=O)N(C)c2cnc(Nc3ccc(C(=O)NC4CCN(CCN(C)CCCOCCC#Cc5cccc6c5CN(C5CCC(=O)NC5=O)C6=O)CC4)cc3OC)nc2N1C1CCCC1 (stereo partly drawn) [Compound 932],≤ 1000 nM

# The next lines start with the molecule.
Compound,IC50 (NCIH82 cells),IC50 (MV4;11 cells),IC50 (U-87MG cells),IC50 (HT-29 cells),IC50 (MDA-MB-231 cells),IC50 (Daudi cells),IC50 (HL-60 cells),IC50 (Hela cells),IC50 (HUVEC cells)
CC[C@@H]1C(=O)N(C)c2cnc(Nc3ccc(C(=O)NCCCOCCOCCNCCC#Cc4cccc5c4CN(C4CCC(=O)NC4=O)C5=O)cc3OC)nc2N1C1CCCC1 (stereo partly drawn) [Compound 890],≤ 1000 nM,≤ 100 nM,100 to 500 nM,300 to 1000 nM,≤ 500 nM,≤ 100 nM,≤ 1000 nM,–,≤ 1000 nM
CC[C@@H]1C(=O)N(C)c2cnc(Nc3ccc(C(=O)NCCC#Cc4cccc5c4CN(C4CCC(=O)NC4=O)C5=O)cc3OC)nc2N1C1CCCC1 (stereo partly drawn) [Compound 891],≤ 1000 nM,100 to 1000 nM,100 to 500 nM,300 to 1000 nM,–,–,≤ 1000 nM,–,–
CC[C@@H]1C(=O)N(C)c2cnc(Nc3ccc(C(=O)NCCCOCCCOCCNCCC#Cc4cccc5c4CN(C4CCC(=O)NC4=O)C5=O)cc3OC)nc2N1C1CCCC1 (stereo partly drawn) [Compound 892],≤ 1000 nM,≤ 100 nM,≤ 100 nM,300 to 1000 nM,≤ 500 nM,100 to 1000 nM,≤ 1000 nM,≤ 1000 nM,≤ 1000 nM
CC[C@@H]1C(=O)N(C)c2cnc(Nc3ccc(C(=O)NC4CCN(CCCOCCNCCC#Cc5cccc6c5CN(C5CCC(=O)NC5=O)C6=O)CC4)cc3OC)nc2N1C1CCCC1 (stereo partly drawn) [Compound 895],≤ 1000 nM,≤ 100 nM,100 to 500 nM,300 to 1000 nM,–,100 to 1000 nM,≤ 1000 nM,–,–
CC[C@@H]1C(=O)N(C)c2cnc(Nc3ccc(C(=O)NC4CCN(CCNCCCOCCC#Cc5cccc6c5CN(C5CCC(=O)NC5=O)C6=O)CC4)cc3OC)nc2N1C1CCCC1 (stereo partly drawn) [Compound 903],≤ 1000 nM,≤ 100 nM,≤ 100 nM,300 to 1000 nM,–,≤ 100 nM,≤ 1000 nM,–,–
CC[C@@H]1C(=O)N(C)c2cnc(Nc3ccc(C(=O)NC4CCN(CCCNCCCOCCC#Cc5cccc6c5CN(C5CCC(=O)NC5=O)C6=O)CC4)cc3OC)nc2N1C1CCCC1 (stereo partly drawn) [Compound 904],> 1000 nM,≤ 100 nM,500 to 1000 nM,> 1000 nM,–,–,≤ 1000 nM,–,–
CC[C@@H]1C(=O)N(C)c2cnc(Nc3ccc(C(=O)NC4CCN(CCCNCCOCCC#Cc5cccc6c5CN(C5CCC(=O)NC5=O)C6=O)CC4)cc3OC)nc2N1C1CCCC1 (stereo partly drawn) [Compound 905],> 1000 nM,≤ 100 nM,100 to 500 nM,> 1000 nM,–,–,≤ 1000 nM,–,–
CC[C@@H]1C(=O)N(C)c2cnc(Nc3ccc(C(=O)NCCCOCCOCCN(C)CCC#Cc4cccc5c4CN(C4CCC(=O)NC4=O)C5=O)cc3OC)nc2N1C1CCCC1 (stereo partly drawn) [Compound 920],≤ 1000 nM,≤ 100 nM,≤ 100 nM,300 to 1000 nM,–,≤ 100 nM,–,–,≤ 1000 nM
CC[C@@H]1C(=O)N(C)c2cnc(Nc3ccc(C(=O)NCCCNCCCOCCC#Cc4cccc5c4CN(C4CCC(=O)NC4=O)C5=O)cc3OC)nc2N1C1CCCC1 (stereo partly drawn) [Compound 921],> 1000 nM,≤ 100 nM,100 to 500 nM,> 1000 nM,–,100 to 1000 nM,–,–,≤ 1000 nM
CC[C@@H]1C(=O)N(C)c2cnc(Nc3ccc(C(=O)NC4CCN(CCCCNCCCC#Cc5cccc6c5CN(C5CCC(=O)NC5=O)C6=O)CC4)cc3OC)nc2N1C1CCCC1 (stereo partly drawn) [Compound 922],≤ 1000 nM,≤ 100 nM,100 to 500 nM,300 to 1000 nM,–,100 to 1000 nM,–,–,≤ 1000 nM
CC[C@@H]1C(=O)N(C)c2cnc(Nc3ccc(C(=O)NC4CCC(N5CCN(CCCC(=O)NC#Cc6cccc7c6CN(C6CCC(=O)NC6=O)C7=O)CC5)CC4)cc3OC)nc2N1C1CCCC1 (stereo partly drawn) [Compound 926],≤ 1000 nM,≤ 100 nM,100 to 500 nM,300 to 1000 nM,–,≤ 100 nM,–,–,≤ 1000 nM
CC[C@@H]1C(=O)N(C)c2cnc(Nc3ccc(C(=O)NCCCOCCN(C)CCC#Cc4cccc5c4CN(C4CCC(=O)NC4=O)C5=O)cc3OC)nc2N1C1CCCC1 (stereo partly drawn) [Compound 927],≤ 1000 nM,≤ 100 nM,≤ 100 nM,≤ 300 nM,–,≤ 100 nM,–,–,≤ 1000 nM
CC[C@@H]1C(=O)N(C)c2cnc(Nc3ccc(C(=O)NC4CCN(C5CN(CCC#Cc6cccc7c6CN(C6CCC(=O)NC6=O)C7=O)C5)CC4)cc3OC)nc2N1C1CCCC1 (stereo partly drawn) [Compound 928],≤ 1000 nM,≤ 100 nM,≤ 100 nM,≤ 300 nM,–,≤ 100 nM,–,–,≤ 1000 nM
CC[C@@H]1C(=O)N(C)c2cnc(Nc3ccc(C(=O)NCCCOCCCOCCN(C)CCC#Cc4cccc5c4CN(C4CCC(=O)NC4=O)C5=O)cc3OC)nc2N1C1CCCC1 (stereo partly drawn) [Compound 930],≤ 1000 nM,≤ 100 nM,≤ 100 nM,≤ 300 nM,–,≤ 100 nM,–,–,≤ 1000 nM
CC[C@@H]1C(=O)N(C)c2cnc(Nc3ccc(C(=O)NC4CCC(N5CCN(CCCNCCC#Cc6cccc7c6CN(C6CCC(=O)NC6=O)C7=O)CC5)CC4)cc3OC)nc2N1C1CCCC1 (stereo partly drawn) [Compound 933],≤ 1000 nM,≤ 100 nM,100 to 500 nM,300 to 1000 nM,–,100 to 1000 nM,–,–,≤ 1000 nM
